Values after ≈ are worked out from the molar mass of the structure shown. Like-named read-outs stand apart in the source and are kept apart here. Numbered stars: 1 amine (or outer) side, 2 acyl side, 3 side chain; on linkers, the order of the positions; unused ones are H or OH. Side chains are listed from the residue outwards. Peptide text beside a SMILES is read from it. * marks the point of attachment. γGlu = O=C(O)[C@H](CCC(=O)[*:2])N[*:1]; Palmitoyl = CCCCCCCCCCCCCCCC(=O)*
How the values were obtained:
[1] = Peptide solubility in buffers (A280); assay type: physicochemical; conditions: target 1 mg/ml, read-out: Conc. (A280), solubility
Text: G7310 was soluble in a pH range of 4.5 to 8.0.

[2] = test system: diet induced obesity (DIO) mouse model; experiment: Diet induced obesity (DIO) mouse model, study A; assay type: in vivo; conditions: for BeHy / Insulin / Plasma NEFA: day 14
Text: Female C57/Bl6JHsdOla (obtained from Harlan Laboratories. UK) were started on a high fat diet of D12492 (Research Diets, NJ, USA) and a chocolate confection, delicato ball (Delicata Bakverk, Sweden) at 9-11 weeks of age, and were maintained on the diet for 16 weeks prior to arrival to the animal facility, during a three week acclimation period and during drug treatment, caloric content of the two components of the diet is shown in Table 11. The mice were divided into 9 groups (n=5-6), and treatment was started at 29 weeks of age.
The body weight of the animals was monitored daily throughout die dosing period. At day 14, blood samples for the measurement of plasma glucose and insulin from conscious mice were obtained after a 4-hour fasting period. Mice were then anaesthetized using isofluorane and terminal blood was collected from the capillary bed behind the eye. The following parameters were measured: blood chemistry measurements of triglycerides, total cholesterol, non-esterified fatty acids (NEFA), beta-hydroxybutyrate and fibroblast growth factor 21 (FGF21) (Tables 14 and 15 below).

[3] = Stability testing of peptides in plasma; assay type: in vitro ADME, mouse
Method: (§1) Stability testing of peptides in plasma.
(§2) Stock solutions of the peptides of about 200 μmol/L was prepared by weighing solid peptide into a Eppendorf Low Bind Tube and dissolved in DMSO. 10 μL of stock solutions were added to 990 μL of plasma in an Eppendorf Low Bind Tube, resulting in initial concentrations of the peptides in plasma of about 2 μmol/L. The frozen blank plasma from human, rat and mouse had been thawed and heated to a temperature of 37° C. before addition of the stock solution. The spiked plasma samples were gently mixed and allowed to equilibrate for about 5 minutes before start of experiment. The plasma samples were incubated for 48 hours in a GalaxyR CO2 incubator at 37° C. Sampling (30 μL) was performed at 0, 1, 2, 6.5, 17, 24 and 48 hours. The samples were stored at −70° C. until analysis.
(§3) Plasma samples were assayed as follows. The 30 μL plasma samples were protein precipitated with […] of cold ethanol in a 96-well low bind plate (Eppendorf Protein LoBind). After mixing and centrifugation, 100 μl the supernatant was transferred to a new plate and 1 μl was injected onto an analytical column.
(§4) The analysis was performed using a μLC-system (LC Exigent μLC) coupled to a medium high resolution mass spectrometer (Perkin Elmer PenTOF) with positive electrospray ionisation. The analytical column was a 5 cm, 1 mm Agilent Poroshell (custom made) C18-column with a particle size of 2.7 μm. Flow: 0.1 ml/min using a slow reversed phase gradient. Mobile phases used were acetonitrile and water containing 0.1% formic acid.
The resulting data were manually evaluated for the following degradation products: +1 product (acid) and the DPP IV-cleavage product. Products with +1 mass may arise from deamidation at amide groups of glutamine or at the C-terminus. Cleavage products arise from the action of the protease DPP IV in plasma. Both the degradation of the peptides and formation of peptide products were reported in percentage of the initial peptide concentration. Peaks were integrated and % remaining peptide was calculated: (peak area/peak area 0H)*100. […]

[4] = assay type: in vitro ADME, rat
Method: as §1, §2
as §3, with “column. […]” for “column.”
The resulting data were manually evaluated for the following degradation products: +1 product (acid) and the DPP IV-cleavage product. […] Peaks were integrated and % remaining peptide was calculated: (peak area/peak area 0H)*100. […]

[5] = target: human serum albumin (Homo sapiens, UniProt P02768); experiment: Fraction of free peptide calculated from variation in cAMP generation with HSA concentration; conditions: calculated from cAMP generation vs HSA concentration
Text: Data was transformed to % Delta F as described in manufacturer's guidelines and analysed by 4-parameter logistic fit to determine EC50 values. […] To compare the balance of activities at the GLP1R and GlucR between different peptides and across different conditions, these can be correlated using the calculation below, where the EC50's are related to those of the natural ligands.

[6] = Peptide solubility in isotonic formulations (DF, BF1, BF2); conditions: formulation DF (DF/BF1 for G797)
Method: Formulations. Peptide solubility was assessed in three different isotonic formulations: • 1. […] Final formulation pH=7.2 • 2. Back up formulation 1 (BF1)=0.05M Tris, 50 nM Arginine/Proline. Final formulation pH=8.0 • 3. […] Final formulation pH=7.0

[7] = assay type: in vitro ADME, human
Method: as §1, §2, §3, §4
The resulting data were manually evaluated for the following degradation products: +1 product (acid) and the DPP IV-cleavage product. Products with +1 mass may arise from deamidation at amide groups of glutamine or at the C-terminus. Cleavage products arise from the action of the protease DPP IV in plasma. Both the degradation of the peptides and formation of peptide products were reported in percentage of the initial peptide concentration. Peaks were integrated and % remaining peptide was calculated: (peak area/peak area 0H)*100. Levels of deamidation and DPP IV cleavage were low for G797 and G933.

[8] = target: T1, Rat GlucR (Rattus norvegicus, UniProt P30082); experiment: cAMP assay in presence of serum albumin (assay 2), 3.2% rat serum albumin; assay type: cell-based; conditions: relative potencies vs native ligands
T1 construct: expressed in transfected cells
Method: CHO cells with stable recombinant expression of the human, mouse or rat GlucR or GLP-t receptor were cultured in DMEM 10% FBS and geneticin (100 μg/mil). Cryopreserved cell stocks were prepared in 1× cell freezing medium-DMSO serum free (Sigma Aldrich) at 2×10^7/vial and stored at […]. […] Peptides were serially diluted in DMSO and then diluted 100 fold into DMEM containing serum albumin at stated final concentration. […] Cells were added to the assay plates and incubated for 30 min at room temperature. Following incubation the assay was stopped and cAMP levels measured using the HTRF® dynamic d2 cAMP assay kit available from CisBio Bioassays, as per the manufacturer's guidelines. Plates were read on Perkin Elmer ENVISION® fluorescence plate readers. Human and rat serum albumin were purchased from Sigma Aldrich and mouse serum albumin from Equitech Bio Ltd.

T1 sequence (P30082 27-485): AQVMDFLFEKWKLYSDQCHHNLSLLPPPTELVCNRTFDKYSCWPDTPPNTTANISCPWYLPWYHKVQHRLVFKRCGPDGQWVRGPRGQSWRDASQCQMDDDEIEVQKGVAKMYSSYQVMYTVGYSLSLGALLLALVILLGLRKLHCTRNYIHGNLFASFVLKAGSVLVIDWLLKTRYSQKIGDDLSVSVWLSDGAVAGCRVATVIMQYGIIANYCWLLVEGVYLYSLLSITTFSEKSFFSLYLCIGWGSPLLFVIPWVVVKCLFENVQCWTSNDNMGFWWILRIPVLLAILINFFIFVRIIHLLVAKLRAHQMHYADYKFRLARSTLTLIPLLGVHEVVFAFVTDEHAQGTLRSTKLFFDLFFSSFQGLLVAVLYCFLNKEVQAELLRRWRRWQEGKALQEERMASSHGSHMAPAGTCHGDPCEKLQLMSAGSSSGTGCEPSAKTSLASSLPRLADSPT
human serum albumin, sequence (P02768 25-609): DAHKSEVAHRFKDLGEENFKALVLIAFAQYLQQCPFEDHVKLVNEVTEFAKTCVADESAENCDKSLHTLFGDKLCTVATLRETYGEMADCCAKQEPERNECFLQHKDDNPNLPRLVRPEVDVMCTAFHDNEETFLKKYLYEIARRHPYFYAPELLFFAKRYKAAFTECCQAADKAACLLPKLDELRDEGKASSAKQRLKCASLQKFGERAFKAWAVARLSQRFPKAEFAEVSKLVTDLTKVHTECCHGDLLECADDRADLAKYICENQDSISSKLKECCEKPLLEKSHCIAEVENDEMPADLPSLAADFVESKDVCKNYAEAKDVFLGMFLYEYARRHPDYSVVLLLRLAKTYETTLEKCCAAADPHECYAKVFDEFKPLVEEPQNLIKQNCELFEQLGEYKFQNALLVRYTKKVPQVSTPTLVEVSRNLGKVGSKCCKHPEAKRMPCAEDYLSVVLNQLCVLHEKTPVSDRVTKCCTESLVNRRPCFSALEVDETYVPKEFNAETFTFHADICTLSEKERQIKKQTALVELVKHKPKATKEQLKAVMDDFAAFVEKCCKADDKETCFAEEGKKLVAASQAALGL

CCCCCCCCCCCCCCCC(=O)N[C@@H](CCC(=O)NCCCC[C@H](NC(=O)[C@H](CCCCN)NC(=O)[C@H](CO)NC(=O)[C@H](Cc1ccc(O)cc1)NC(=O)[C@H](CC(=O)O)NC(=O)[C@H](CO)NC(=O)[C@@H](NC(=O)[C@H](Cc1ccccc1)NC(=O)[C@@H](NC(=O)CNC(=O)[C@H](CCC(N)=O)NC(=O)[C@H](CO)NC(=O)[C@@H](N)Cc1c[nH]cn1)[C@@H](C)O)[C@@H](C)O)C(=O)N[C@@H](CC(C)C)C(=O)N[C@@H](CC(=O)O)C(=O)N[C@@H](CO)C(=O)N[C@@H](CCC(=O)O)C(=O)N[C@@H](CCCNC(=N)N)C(=O)N[C@@H](C)C(=O)N[C@@H](CCCNC(=N)N)C(=O)N[C@@H](CC(=O)O)C(=O)N[C@@H](Cc1ccccc1)C(=O)N[C@H](C(=O)N[C@@H](C)C(=O)N[C@@H](Cc1c[nH]c2ccccc12)C(=O)N[C@@H](CC(C)C)C(=O)N[C@H](C(=O)N[C@@H](C)C(=O)NCC(=O)NCC(N)=O)C(C)C)C(C)C)C(=O)O [Peptide G730] (H-HSQGTFTSDYSKK([γGlu-Palmitoyl])LDSERARDFVAWLVAGG-NH2; N-terminus assumed) gave a solubility ([1]; Tris buffer, Tris pH 7.5, 100 mM) of 830 µg/mL (≈ 225 µM), a solubility ([1]; Tris buffer, Tris pH 8.0, 100 mM) of 1100 µg/mL (≈ 298 µM) and a solubility ([1]; glutamate buffer, Glutamate pH 4.5, 100 mM) of 830 µg/mL (≈ 225 µM). It also gave a solubility ([1]; phosphate buffer, Phosphate pH 6, 100 mM) of 140 µg/mL (≈ 37.9 µM), a solubility ([1]; phosphate buffer, Phosphate pH 6.5, 100 mM) of 830 µg/mL (≈ 225 µM) and a solubility ([1]; phosphate buffer, Phosphate pH 7.5, 100 mM) of 850 µg/mL (≈ 230 µM). For the same molecule, the BeHy ([2]; 10 nmol/kg) was 426 u mol/l, the Insulin ([2]; 10 nmol/kg) was 0.4 nM and the “Plasma NEFA” value ([2]; 10 nmol/kg) was 0.28 Mm. For the same molecule, the BeHy ([2]; 20 nmol/kg) was 750 u mol/l, the Insulin ([2]; 20 nmol/kg) was 0.2 nM and the “Plasma NEFA” value ([2]; 20 nmol/kg) was 0.26 Mm. For the same molecule, the BeHy ([2]; 50 nmol/kg) was 1477 u mol/l, the Insulin ([2]; 50 nmol/kg) was 0.3 nM and the “Plasma NEFA” value ([2]; 50 nmol/kg) was 0.32 Mm. The “body weight over the 14 day dosing period” value ([2]; study A, in words) was “dose dependent and continuous weight loss”, the “glucose levels at day 14” value ([2]; study A, in words) was “dose-dependent reduction in glucose levels” and the “% +1 prod” value [3] was 15%. For the same molecule, the “% stable peptide” value ([3]; mouse plasma, 37° C., 24 h) was 65%, the “% DPP cleaved product/+1 DPP cleaved product” value [4] was 2% and the “free peptide at 4.4% HSA” value [5] was 0.85%. The “Formulation Concentration” value [6] was 5 mg/mL, the “% +1 prod” value [7] was under 1% and the “% DPP cleaved product/+1 DPP cleaved product” value [7] was under 1%. For the same molecule, the “Rat GlucR/GLP1R Ratio” value [8] was 0.05.

From US20220041681A1 (MEDIMMUNE LIMITED, priority 2016, published 2022)
